Data reported in the NIST ThermoML archive (doi:10.1021/acs.jced.6b00523).
Several values for one entry are separate records, joined by “and”; a condition that tells them apart may be missing. Equal values may be shown once. Numbers after ± are expanded uncertainties.

Conditions: Closed cell (Static) method

[CH]1C=CC=C1.[CH]1C=CC=C1.[Fe] [ferrocene]
Crystal
Conditions	vapor or sublimation pressure
276.97 K	9.4e-05 ± 0.00011 kPa and 9.7e-05 ± 0.00011 kPa
276.98 K	0.000101 ± 0.00011 kPa
282.75 K	0.000181 ± 0.00011 kPa and 0.000189 ± 0.00011 kPa
282.76 K	0.000194 ± 0.00011 kPa
286.28 K	0.000288 ± 0.00011 kPa
286.29 K	0.000285 ± 0.00011 kPa
286.31 K	0.000283 ± 0.00011 kPa
288.24 K	0.000335 ± 0.00011 kPa and 0.000344 ± 0.00011 kPa
292.28 K	0.000536 ± 0.00011 kPa
292.29 K	0.000527 ± 0.00011 kPa and 0.000529 ± 0.00011 kPa
293.76 K	0.000622 ± 0.00012 kPa and 0.000626 ± 0.00012 kPa and 0.000627 ± 0.00012 kPa
294.28 K	0.000652 ± 0.00012 kPa
294.29 K	0.000646 ± 0.00012 kPa
294.34 K	0.00065 ± 0.00012 kPa
296.77 K	0.000841 ± 0.00012 kPa
296.78 K	0.000848 ± 0.00012 kPa and 0.000858 ± 0.00012 kPa
299.19 K	0.001072 ± 0.00012 kPa and 0.001073 ± 0.00012 kPa and 0.001078 ± 0.00012 kPa
302.11 K	0.001417 ± 0.00013 kPa
302.13 K	0.001428 ± 0.00013 kPa and 0.001429 ± 0.00013 kPa
303.24 K	0.00162 ± 0.00014 kPa
303.25 K	0.001618 ± 0.00014 kPa
304.61 K	0.001809 ± 0.00014 kPa and 0.001811 ± 0.00014 kPa and 0.001815 ± 0.00014 kPa
307.47 K	0.002395 ± 0.00015 kPa and 0.002397 ± 0.00015 kPa and 0.002384 ± 0.00015 kPa
310.03 K	0.003047 ± 0.00017 kPa and 0.003053 ± 0.00017 kPa
310.04 K	0.003068 ± 0.00017 kPa
312.78 K	0.003906 ± 0.0002 kPa and 0.00391 ± 0.0002 kPa and 0.003916 ± 0.0002 kPa
314.08 K	0.00442 ± 0.00021 kPa and 0.004424 ± 0.00021 kPa
314.09 K	0.004449 ± 0.00021 kPa
315.43 K	0.004969 ± 0.00023 kPa and 0.004971 ± 0.00023 kPa
318.06 K	0.006287 ± 0.00027 kPa and 0.006293 ± 0.00027 kPa and 0.006304 ± 0.00028 kPa
320.77 K	0.007956 ± 0.00033 kPa
323.34 K	0.009923 ± 0.0004 kPa
323.35 K	0.009927 ± 0.0004 kPa and 0.009932 ± 0.0004 kPa
324.89 K	0.01134 ± 0.00046 kPa and 0.01135 ± 0.00046 kPa
326.09 K	0.01251 ± 0.0005 kPa and 0.01252 ± 0.0005 kPa
328.59 K	0.01539 ± 0.00055 kPa
328.6 K	0.0154 ± 0.00055 kPa and 0.01541 ± 0.00055 kPa
331.35 K	0.01928 ± 0.00061 kPa
331.36 K	0.01929 ± 0.00061 kPa and 0.0193 ± 0.00061 kPa
333.86 K	0.02352 ± 0.00068 kPa
335.51 K	0.02691 ± 0.00074 kPa and 0.02692 ± 0.00074 kPa
336.59 K	0.02929 ± 0.00078 kPa
336.6 K	0.02929 ± 0.00078 kPa
339.07 K	0.03535 ± 0.00088 kPa
339.08 K	0.03533 ± 0.00088 kPa and 0.03537 ± 0.00088 kPa
341.81 K	0.04367 ± 0.001 kPa and 0.04368 ± 0.001 kPa and 0.04369 ± 0.001 kPa
344.2 K	0.052 ± 0.0012 kPa
344.21 K	0.05207 ± 0.0012 kPa and 0.0521 ± 0.0012 kPa
346.02 K	0.0598 ± 0.0013 kPa and 0.05982 ± 0.0013 kPa and 0.05985 ± 0.0013 kPa
349.36 K	0.07591 ± 0.0016 kPa
349.37 K	0.07593 ± 0.0016 kPa and 0.07595 ± 0.0016 kPa
351.22 K	0.08709 ± 0.0018 kPa and 0.08711 ± 0.0018 kPa and 0.08712 ± 0.0018 kPa
354.37 K	0.1082 ± 0.0021 kPa
356.27 K	0.1242 ± 0.0024 kPa
359.5 K	0.1538 ± 0.0026 kPa
359.51 K	0.1539 ± 0.0026 kPa
362.73 K	0.1914 ± 0.003 kPa and 0.1916 ± 0.003 kPa
366.77 K	0.2492 ± 0.0037 kPa and 0.2493 ± 0.0037 kPa and 0.2494 ± 0.0037 kPa

c1ccc2ccccc2c1 [naphthalene]
Conditions	vapor or sublimation pressure
276.72 K, Crystal	0.001118 ± 0.00012 kPa
276.73 K, Crystal	0.001122 ± 0.00012 kPa
276.74 K, Crystal	0.001118 ± 0.00012 kPa
280.12 K, Crystal	0.001625 ± 0.00013 kPa
280.15 K, Crystal	0.001634 ± 0.00013 kPa
280.17 K, Crystal	0.001644 ± 0.00013 kPa
283.27 K, Crystal	0.002321 ± 0.00015 kPa and 0.002329 ± 0.00015 kPa and 0.002333 ± 0.00015 kPa
286.33 K, Crystal	0.003264 ± 0.00017 kPa and 0.003275 ± 0.00017 kPa
286.34 K, Crystal	0.003276 ± 0.00017 kPa
289.39 K, Crystal	0.004482 ± 0.00021 kPa and 0.004484 ± 0.00021 kPa and 0.004493 ± 0.00021 kPa
292 K, Crystal	0.005885 ± 0.00026 kPa and 0.005899 ± 0.00026 kPa and 0.005902 ± 0.00026 kPa
292.04 K, Crystal	0.005878 ± 0.00026 kPa
292.05 K, Crystal	0.005881 ± 0.00026 kPa and 0.005889 ± 0.00026 kPa
293.36 K, Crystal	0.006861 ± 0.00029 kPa
293.38 K, Crystal	0.006881 ± 0.00029 kPa
293.4 K, Crystal	0.006871 ± 0.00029 kPa
294.91 K, Crystal	0.007907 ± 0.00033 kPa
294.94 K, Crystal	0.007905 ± 0.00033 kPa
294.96 K, Crystal	0.007922 ± 0.00033 kPa
296.91 K, Crystal	0.009768 ± 0.0004 kPa and 0.009773 ± 0.0004 kPa
296.92 K, Crystal	0.009786 ± 0.0004 kPa
297.67 K, Crystal	0.01039 ± 0.00042 kPa and 0.0104 ± 0.00042 kPa
297.68 K, Crystal	0.01041 ± 0.00042 kPa
300.93 K, Crystal	0.01426 ± 0.00053 kPa
300.95 K, Crystal	0.01427 ± 0.00053 kPa and 0.01428 ± 0.00053 kPa
302.6 K, Crystal	0.01691 ± 0.00057 kPa and 0.01696 ± 0.00057 kPa
303.67 K, Crystal	0.01833 ± 0.0006 kPa and 0.01835 ± 0.0006 kPa
306.52 K, Crystal	0.02413 ± 0.00069 kPa
306.6 K, Crystal	0.02433 ± 0.0007 kPa
306.65 K, Crystal	0.02446 ± 0.0007 kPa
308.22 K, Crystal	0.02835 ± 0.00076 kPa and 0.02834 ± 0.00076 kPa
312.83 K, Crystal	0.04277 ± 0.001 kPa
312.84 K, Crystal	0.04281 ± 0.001 kPa
312.85 K, Crystal	0.04282 ± 0.001 kPa
313.85 K, Crystal	0.04691 ± 0.0011 kPa
315.09 K, Crystal	0.05173 ± 0.0012 kPa and 0.05174 ± 0.0012 kPa
317.19 K, Crystal	0.06259 ± 0.0014 kPa and 0.06261 ± 0.0014 kPa and 0.06262 ± 0.0014 kPa
319.43 K, Crystal	0.07588 ± 0.0016 kPa and 0.07592 ± 0.0016 kPa
324.1 K, Crystal	0.1124 ± 0.0022 kPa
324.99 K, Crystal	0.1206 ± 0.0024 kPa
325 K, Crystal	0.1206 ± 0.0024 kPa
325.01 K, Crystal	0.1206 ± 0.0024 kPa
326.36 K, Crystal	0.1338 ± 0.0023 kPa
326.37 K, Crystal	0.1338 ± 0.0023 kPa
328.22 K, Crystal	0.1567 ± 0.0026 kPa
330.59 K, Crystal	0.1886 ± 0.003 kPa
330.6 K, Crystal	0.1887 ± 0.003 kPa
335.27 K, Crystal	0.2723 ± 0.004 kPa
335.28 K, Crystal	0.2726 ± 0.004 kPa
335.31 K, Crystal	0.2732 ± 0.004 kPa
336.07 K, Crystal	0.288 ± 0.0042 kPa and 0.2881 ± 0.0042 kPa
337.45 K, Crystal	0.3184 ± 0.0046 kPa
337.46 K, Crystal	0.3185 ± 0.0046 kPa
339.09 K, Crystal	0.3626 ± 0.0051 kPa and 0.3628 ± 0.0051 kPa and 0.3624 ± 0.0051 kPa
341.45 K, Crystal	0.4305 ± 0.0059 kPa
341.46 K, Crystal	0.4306 ± 0.0059 kPa
346.83 K, Crystal	0.6347 ± 0.0084 kPa
346.84 K, Crystal	0.6347 ± 0.0084 kPa
348.58 K, Crystal	0.7143 ± 0.0094 kPa and 0.7145 ± 0.0094 kPa and 0.7148 ± 0.0094 kPa
352.18 K, Crystal	0.9195 ± 0.012 kPa and 0.9196 ± 0.012 kPa
355.35 K, Liquid	1.098 ± 0.014 kPa
358.34 K, Liquid	1.266 ± 0.016 kPa
358.36 K, Liquid	1.267 ± 0.016 kPa
358.38 K, Liquid	1.269 ± 0.016 kPa
